The record followed here is patent publication US20230183237A1, “COMPETITIVE AND NONCOMPETITIVE INHIBITORS OF THE MUSCARINIC ACETYLCHOLINE RECEPTOR M5” (Vanderbilt University, priority 2020, published 2023).

A word on the IC50: it is the midpoint of a concentration-inhibition curve.

This test has as its target T1, hM5 (Homo sapiens, UniProt P08912).
T1 construct: expressed in transfected cells
T1 sequence (P08912 1-532): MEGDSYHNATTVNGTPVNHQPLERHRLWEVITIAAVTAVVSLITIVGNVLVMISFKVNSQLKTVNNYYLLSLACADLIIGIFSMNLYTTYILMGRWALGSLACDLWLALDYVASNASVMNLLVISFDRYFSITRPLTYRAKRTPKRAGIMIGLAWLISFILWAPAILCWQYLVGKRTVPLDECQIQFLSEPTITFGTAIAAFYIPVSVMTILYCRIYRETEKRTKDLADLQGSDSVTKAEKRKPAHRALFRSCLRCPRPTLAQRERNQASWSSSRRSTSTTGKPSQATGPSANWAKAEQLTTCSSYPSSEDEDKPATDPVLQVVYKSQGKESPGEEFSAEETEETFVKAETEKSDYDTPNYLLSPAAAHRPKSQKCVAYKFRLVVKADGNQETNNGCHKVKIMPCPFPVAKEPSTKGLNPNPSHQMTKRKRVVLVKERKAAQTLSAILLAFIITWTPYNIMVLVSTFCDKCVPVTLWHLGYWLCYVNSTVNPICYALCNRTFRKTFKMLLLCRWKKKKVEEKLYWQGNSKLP
In words: Calcium mobilization concentration-response (IC50 vs EC80 acetylcholine), CHO hM5. The test is classed as cell-based. Particulars: CELL LINE hM5; vs EC80 acetylcholine; read-out: IC50. The gist of the method:
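IC50 values derive from percent maximal acetylcholine response after an EC80 ACh addition, measured as kinetic calcium fluorescence (static ratio, max−min). Test compounds were added 140 s before agonist. Cells: stable hM5-CHO in HEPES-buffered HBSS with 2.5 mM probenecid, pH 7.4; ≥3 independent triplicate determinations.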
For orientation: A change in cytosolic calcium serves as a functional read-out for many receptors and channels.

Take `[2H]C1([2H])CC(c2cn3ncnc3cc2Cl)CC([2H])([2H])N1S(=O)(=O)c1nncn1C` [Compound 580, 7-chloro-6-(1-((4-methyl-4H-1,2,4-triazol-3-yl)sulfonyl)piperidin-4-yl-2,2,6,6-d4)-[1,2,4]triazolo[1,5-a]pyridine]: the IC50 came out at 98 nM. For `Cc1cc2nccn2cc1C1CCN(S(=O)(=O)c2cnn(C)c2Cl)CC1` [Compound 581, 6-(1-((5-chloro-1-methyl-1H-pyrazol-4-yl)sulfonyl)piperidin-4-yl)-7-methylimidazo[1,2-a]pyridine] the value was 25 nM; for `Cc1ncc(S(=O)(=O)N2CCC(c3cn4ccnc4cc3C)CC2)o1` [Compound 582, 2-methyl-5-((4-(7-methylimidazo[1,2-a]pyridin-6-yl)piperidin-1-yl)sulfonyl)oxazole], 831 nM; for `Cc1ncc(S(=O)(=O)N2CCC(c3cn4ccnc4cc3C)CC2)s1` [Compound 583, 2-methyl-5-((4-(7-methylimidazo[1,2-a]pyridin-6-yl)piperidin-1-yl)sulfonyl)thiazole], 2070 nM. As for `CCc1cc2ncnn2cc1C1CCN(S(=O)(=O)c2cnn(C)c2OC)CC1` [Compound 584, 7-ethyl-6-(1-((5-methoxy-1-methyl-1H-pyrazol-4-yl)sulfonyl)piperidin-4-yl)-[1,2,4]triazolo[1,5-a]pyridine], the IC50 is 77 nM. Regarding `COc1c(S(=O)(=O)N2CCC(c3cn4ncnc4cc3C(F)(F)F)CC2)cnn1C` [Compound 585, 6-(1-((5-methoxy-1-methyl-1H-pyrazol-4-yl)sulfonyl)piperidin-4-yl)-7-(trifluoromethyl)-[1,2,4]triazolo[1,5-a]pyridine], the concentration for half-maximal inhibition (IC50) was found to be 67 nM. With `COc1c(S(=O)(=O)N2CCC(F)(c3cn4ncnc4cc3C)CC2)cnn1C` [Compound 586, 6-(4-fluoro-1-((5-methoxy-1-methyl-1H-pyrazol-4-yl)sulfonyl)piperidin-4-yl)-7-methyl-[1,2,4]triazolo[1,5-a]pyridine] the figure was 147 nM. With `Cn1ncc(S(=O)(=O)N2CCC(c3cc(-c4ccco4)n[nH]3)CC2)c1Cl` [Compound 587], the IC50 is 1460 nM. For `Cc1cc2ncnn2cc1C1(F)CCN(S(=O)(=O)c2cn(C)nn2)CC1` [Compound 588, 6-(4-fluoro-1-((1-methyl-1H-1,2,3-triazol-4-yl)sulfonyl)piperidin-4-yl)-7-methyl-[1,2,4]triazolo[1,5-a]pyridine] the value was 2110 nM; for `Cc1ncc(S(=O)(=O)N2CCC(c3cn4ccnc4cc3Cl)CC2)s1` [Compound 589, 5-((4-(7-chloroimidazo[1,2-a]pyridin-6-yl)piperidin-1-yl)sulfonyl)-2-methylthiazole], 530 nM; for `Cn1nc(-c2ccco2)cc1C1CCN(S(=O)(=O)c2cnn(C)c2Cl)CC1` [Compound 590, 1-((5-Chloro-1-methyl-1H-pyrazol-4-yl)sulfonyl)-4-(3-(furan-2-yl)-1-methyl-1H-pyrazol-5-yl)piperidine], 3100 nM.

Take `Cn1nc(C2CCN(S(=O)(=O)c3cnn(C)c3Cl)CC2)cc1-c1ccco1` [Compound 591, 1-((5-Chloro-1-methyl-1H-pyrazol-4-yl)sulfonyl)-4-(5-(furan-2-yl)-1-methyl-1H-pyrazol-3-yl)piperidine]: the IC50 was more than 10000 nM. Turning to `Cn1ncc(S(=O)(=O)N2CCC(c3c4c(nn3C)CCCC4)CC2)c1Cl` [Compound 592, 3-(1-((5-chloro-1-methyl-1H-pyrazol-4-yl)sulfonyl)piperidin-4-yl)-2-methyl-4,5,6,7-tetrahydro-2H-indazole], the IC50 was determined as 325 nM. With `Cc1ncc(S(=O)(=O)N2CCC(c3c4c(nn3C)CCCC4)CC2)s1` [Compound 593, 2-methyl-5-((4-(2-methyl-4,5,6,7-tetrahydro-2H-indazol-3-yl)piperidin-1-yl)sulfonyl)thiazole] the figure was more than 10000 nM; with `[2H]C1([2H])CC(c2cn3ncnc3cc2C(F)F)CC([2H])([2H])N1S(=O)(=O)c1cnc(C)o1` [Compound 594, 5-((4-(7-(difluoromethyl)-[1,2,4]triazolo[1,5-a]pyridin-6-yl)piperidin-1-yl-2,2,6,6-d4)sulfonyl)-2-methyloxazole], 228 nM.

With `[2H]C1([2H])CC(c2cn3ncnc3cc2C(F)F)CC([2H])([2H])N1S(=O)(=O)c1cn(C)nn1` [Compound 595, 7-(difluoromethyl)-6-(1-((1-methyl-1H-1,2,3-triazol-4-yl)sulfonyl)piperidin-4-yl-2,2,6,6-d4)-[1,2,4]triazolo[1,5-a]pyridine], the half-inhibitory concentration (IC50) came out at 784 nM. With `Cc1cc2ncnn2cc1C1CCN(S(=O)(=O)c2cnn(C)c2CN2Cc3ncccc3C2=O)CC1` [Compound 597, 6-((1-Methyl-4-((4-(7-methyl-[1,2,4]triazolo[1,5-a]pyridin-6-yl)piperidin-1-yl)sulfonyl)-1H-pyrazol-5-yl)methyl)-6,7-dihydro-5H-pyrrolo[3,4-b]pyridin-5-one] the figure was more than 10000 nM; with `Cc1cc2ncnn2cc1C1CCN(S(=O)(=O)c2cnn(C)c2-c2scnc2C)CC1` [Compound 598, 4-Methyl-5-(1-methyl-4-((4-(7-methyl-[1,2,4]triazolo[1,5-a]pyridin-6-yl)piperidin-1-yl)sulfonyl)-1H-pyrazo1-5-yl)thiazole], 804 nM. For `Cc1nnc(S(=O)(=O)N2CCC(c3cn4ncnc4cc3Cl)CC2)[nH]1` [Compound 599, 7-chloro-6-(1-((5-methyl-4H-1,2,4-triazol-3-yl)sulfonyl)piperidin-4-yl)-[1,2,4]triazolo[1,5-a]pyridine] the value was more than 10000 nM.

Take `COc1ncc(S(=O)(=O)N2CCC(c3cn4ncnc4cc3C)CC2)s1` [Compound 600, 2-methoxy-5-((4-(7-methyl-[1,2,4]triazolo[1,5-a]pyridin-6-yl)piperidin-1-yl)sulfonyl)thiazole]: the IC50 turned out to be 529 nM.

Regarding `Cc1cc2ncnn2cc1C1CCN(S(=O)(=O)c2scnc2C)CC1` [Compound 601, 4-methyl-5-((4-(7-methyl-[1,2,4]triazolo[1,5-a]pyridin-6-yl)piperidin-1-yl)sulfonyl)thiazole], the IC50 turned out to be 5240 nM. On to `Cc1cc2ncnn2cc1C1CCN(S(=O)(=O)c2cnn(C)c2OC(C)C)CC1` [Compound 603, 6-(1-((5-isopropoxy-1-methyl-1H-pyrazol-4-yl)sulfonyl)piperidin-4-yl)-7-methyl-[1,2,4]triazolo[1,5-a]pyridine], for which the IC50 is 244 nM.

For the compound `CC(C)Oc1c(S(=O)(=O)N2CCC(c3cn4ncnc4cc3Cl)CC2)cnn1C` [Compound 604, 7-chloro-6-(1-((5-isopropoxy-1-methyl-1H-pyrazol-4-yl)sulfonyl)piperidin-4-yl)-[1,2,4]triazolo[1,5-a]pyridine], the IC50 is 159 nM. In the case of `Cc1cc(S(=O)(=O)N2CCC(c3cn4ncnc4cc3CF)CC2)sn1` [Compound 605, 5-((4-(7-(Fluoromethyl)-[1,2,4]triazolo[1,5-a]pyridin-6-yl)piperidin-1-yl)sulfonyl)-3-methylisothiazole], the IC50 was found to be 26 nM. For `Cc1cc(S(=O)(=O)N2CCC(c3cn4ncnc4cc3CCl)CC2)sn1` [Compound 606, 5-((4-(7-(chloromethyl)-[1,2,4]triazolo[1,5-a]pyridin-6-yl)piperidin-1-yl)sulfonyl)-3-methylisothiazole] the value was 126 nM; for `Cc1nnc(S(=O)(=O)N2CCC(c3cn4ncnc4cc3Cl)CC2)o1` [Compound 607], 151 nM; for `Cc1nsc(S(=O)(=O)N2CCC(c3cn4ncnc4cc3Cl)CC2)n1` [Compound 608, 5-((4-(7-Chloro-[1,2,4]triazolo[1,5-a]pyridin-6-yl)piperidin-1-yl)sulfonyl)-3-methyl-1,2,4-thiadiazole], 234 nM.

As for `[2H]c1nc2cc(Cl)c(C3=CCN(S(=O)(=O)c4cnc(C)o4)CC3)cn2n1` [Compound 610, 5-((4-(7-chloro-[1,2,4]triazolo[1,5-a]pyridin-6-yl-2-d)-3,6-dihydropyridin-1(2H)-yl)sulfonyl)-2-methyloxazole], the IC50 came out at 40 nM.

As for `[2H]c1nc2cc(Cl)c(C3=CCN(S(=O)(=O)c4cnc(C)s4)CC3)cn2n1` [Compound 611, 5-((4-(7-chloro-[1,2,4]triazolo[1,5-a]pyridin-6-yl-2-d)-3,6-dihydropyridin-1(2H)-yl)sulfonyl)-2-methylthiazole], the IC50 worked out at 97 nM. Take `[2H]C([2H])([2H])Oc1c(S(=O)(=O)N2CCC(c3cn4ncnc4cc3C)CC2)cnn1C` [Compound 612, 6-(1-((5-(methoxy-d3)-1-methyl-1H-pyrazol-4-yl)sulfonyl)piperidin-4-yl)-7-methyl-[1,2,4]triazolo[1,5-a]pyridine]: the IC50 was 18 nM. Regarding `[2H]C([2H])([2H])Oc1c(S(=O)(=O)N2CCC(c3cn4ncnc4cc3Cl)CC2)cnn1C` [Compound 613, 7-chloro-6-(1-((5-(methoxy-d3)-1-methyl-1H-pyrazol-4-yl)sulfonyl)piperidin-4-yl)-[1,2,4]triazolo[1,5-a]pyridine], the IC50 stood at 22 nM. With `[2H]C([2H])([2H])Oc1c(S(=O)(=O)N2CCC(c3cn4ncnc4c(F)c3C)CC2)cnn1C` [Compound 614, 8-fluoro-6-(1-((5-(methoxy-d3)-1-methyl-1H-pyrazol-4-yl)sulfonyl)piperidin-4-yl)-7-methyl-[1,2,4]triazolo[1,5-a]pyridine] the figure was 59 nM.
